Row | SMILES | melting point
1 | CCOC(=O)C1=C(O)c2cc3ccccc3n2CC1 | 101 to 103 °C
2 | CCCc1c(OCCCO)ccc(C(C)=O)c1O | 57 to 59 °C
3 | CON=C(CCC(=O)O)c1ccc(-c2ccc(Cl)cc2)cc1 | 183 to 186 °C
4 | NC(=O)N[C@@H]1CN2C(=O)N(c3cc(Cl)nc(Cl)c3)C(=O)[C@@]2(Cc2ccc(OC(F)(F)F)cc2)C1 | 142 °C
5 | CC(=CC(=O)O)c1ccc([N+](=O)[O-])cc1 | 167 to 169 °C
6 | CCOC(=O)C1=C(C)NC(C)=C(C(=O)OCC)C1c1ccc(Br)cc1 | 164 to 165 °C
7 | COC(=O)c1ccc(NC(=O)c2ccc(-c3ccccc3)cc2)cc1 | 247 to 251 °C
8 | O=C(O)/C=C/C=C(c1ccccc1C(F)(F)F)c1ccccc1C(F)(F)F | 162 to 164 °C
9 | COc1ccc(-c2nc(Sc3ccc(Cl)cc3)n(C3CCCCO3)c2-c2ccc(OC)cc2)cc1 (configuration not stated) | 202 to 204 °C
10 | CCCCc1ccc(-c2ccc(-c3ccc(CC)cc3)cc2F)s1 | 37 °C
11 | CCOC(=O)OC1=C(c2c(C)cc(C)cc2C)C(=O)SC12CCN(OC)CC2 | 87 to 89 °C
12 | CC(C)(C)OC(=O)N1C(=O)C2(COc3cc4c(cc32)OCO4)c2c(Br)cccc21 (configuration not stated) | 154 to 156 °C
13 | Nc1ccc(Cn2cnc3c(-c4ccco4)ncnc32)cc1 | 195 to 197 °C
14 | CC1(C)C=Cc2c(-c3[nH]c4cn[nH]c(=O)c4c3Cl)ccc(OC(F)F)c2O1 | 226 to 234 °C
15 | COc1ccc(C)cc1NC(=O)Nc1ccc(N2CCN(C(=O)Nc3ccc(N)cc3C(F)(F)F)CC2)cc1 | 244 to 246 °C
16 | CCCn1nc2c(N)nc3ccccc3c2c1CC(C)(C)NC(=O)NC(C)C | 190 to 191 °C
17 | CCOc1nsc(NC(=O)NC)c1C#N | 244 °C
18 | CC(=O)OC(c1ccc(OCc2ccccc2)cc1)C(F)(F)F (configuration not stated) | 85 to 87 °C
19 | O=C(Nc1nnn[nH]1)c1cc2c(cc1[N+](=O)[O-])OCO2 | 279 °C
20 | CCOC(=O)[C@H](Cc1ccc(-c2c(OC)cc(CO)cc2OC)cc1)NC(=O)c1c(F)cccc1F | 70 to 72 °C
21 | O=C(O)c1ccc(NCCc2cccs2)cc1 | 161 to 163 °C
22 | CCOC(=O)c1cc2cc(C(F)(F)F)cnc2n1Cc1ccccc1 | 72 to 73 °C
23 | O=C(O)c1nc2c(NCc3ccccc3)ncnc2n1C1OC(CO)C(O)C1O (configuration not stated) | 125 to 127 °C
24 | Cn1cc(C(=O)O)c(=O)c2cc(F)c(N3CCCN(c4ncccn4)CC3)c(C(F)(F)F)c21 | 243 to 245 °C
25 | O=C1C(Cc2ccccc2)SC(=S)N1c1nccs1 (configuration not stated) | 164 to 165 °C

Row | SMILES | melting point
26 | CC=CC(=O)Nc1ccc2c(Nc3cccc(Br)c3)ncnc2c1 | > 250 °C
27 | CCc1cc(C)c2c(C3CCCCC3)cc(=O)n(CC)c2n1 | 79 to 80 °C
28 | NC(=O)COc1ccc(CN2C(=O)C3(COc4cc5c(cc43)CCO5)c3ccccc32)cc1 (configuration not stated) | 215 to 216 °C
29 | NCC(c1ccc(OCc2ccccc2)cc1)C1CCCCC1O (mixture of isomers) | 160 to 161 °C
30 | COc1cc(OC)c2c(=O)[nH]c(-c3cc(C)c(OCCN4CCN(C(C)=O)CC4)c(C)c3)nc2c1 | 213 to 214 °C
31 | CC(C)(C)c1nc(-c2ccc(F)cc2)c(-c2ccc(S(C)(=O)=O)cc2)o1 | 130 to 131 °C
32 | C#CCOc1cc(Oc2cc(Cl)cc(Cl)c2)ncn1 | 136 °C
33 | CCOCCCC1(O)c2ccccc2C=Cc2ccc(I)cc21 (configuration not stated) | 95 to 105 °C
34 | CC(C)(C)[Si](C)(C)Oc1ccc(C(=O)Oc2ccc(C(=O)O)cn2)cc1C12CC3CC(CC(C3)C1)C2 | 188 to 190 °C
35 | O=C(Nc1ccc(N2CCOCC2)c(C(F)(F)F)c1)c1ccc(F)c(OCc2cccnc2)c1 | 160 to 161 °C
36 | Cc1oc(-c2ccccc2F)nc1CCOc1ccc(CN(O)C(N)=O)cc1 | 151 to 152 °C
37 | CC1Oc2ccc(CN3CCN(c4nc5c(c(=O)n(C)c(=O)n5C)n4C)CC3)cc2NC1=O (configuration not stated) | 130 to 138 °C
38 | O=C(O)/C=C/c1ccc(N2CCC(=O)CC2)cc1 | 215 °C
39 | CC(C)(O)c1ccc(-c2cnc3[nH]c(=O)n(CC4CCOCC4)c3n2)cn1 | 207 to 209 °C
40 | CC1(O)ON=C(c2ccc(Br)cc2)C1c1ccccc1 (configuration not stated) | 153 °C
41 | CC(C)(C)c1ccc(C(=O)Cc2ccncc2)cc1 | 75 to 76 °C
42 | COc1cc(Cl)cc(CO)c1Cl | 58 to 64 °C
43 | COc1cc2ccc(C=O)cc2cc1OC | 87 to 88 °C
44 | O=C(CCCC(=O)N1CCC[C@H]1C(=O)O)c1ccccc1 | 102 to 105 °C
45 | Cc1ccc2[nH]c(=O)cc(CCN3CCN(c4cccc5ccccc45)CC3)c2c1 | 241 to 242 °C
46 | C[C@@H](NC(=O)c1nc(-c2ccc(Cl)cc2)ns1)[C@](O)(Cn1cncn1)c1ccc(F)cc1F | 215 to 220 °C
47 | O=c1ccccn1C1c2cc(S(=O)c3ccccc3)ccc2OCCC1O (configuration not stated) | 181 to 184 °C
48 | COCOc1ccc(-n2c(=O)c3c(CN(C)Cc4ccccc4)c(-c4ccc(NC(=O)NOC)cc4)sc3n(Cc3c(F)cccc3F)c2=O)cc1 | 189 to 191 °C
49 | Fc1ccc(-c2cc(C(F)(F)F)n3ncc(-c4cccnc4)c3n2)cc1Cl | 190 °C
50 | c1ccc(COc2ccc(OCC3CO3)cc2)cc1 (configuration not stated) | 68 °C

Row | SMILES | melting point
51 | COC(=O)c1cc(I)cc2c1Nc1ccccc1C2 | 148 to 150 °C
52 | N#CNC=Nc1ccc(-c2ncc[nH]2)cc1 | 202 to 203 °C
53 | CCN(CC)CCOc1ccc2c(C(=O)NC(=N)N)cccc2c1 | 168 to 169 °C
54 | COc1cc2c(cc1F)C1(CO2)C(=O)N(CC2CCCCO2)c2ccccc21 (configuration not stated) | 131 to 133 °C
55 | O=C=Nc1c(F)cc(Cl)c2nc(Cl)sc12 | 95 to 98 °C
56 | CCn1cc(C(=O)O)c(=O)c2c(F)c(F)c(N3CCN(C)CC3)c(F)c21 | 221 to 223 °C
57 | COc1cc2nc(N3CCc4ccc([N+](=O)[O-])cc4C3)nc(N)c2cc1OC | 135 to 137 °C
58 | C=CCOc1cc(NC(=O)C2CCCCC2C(=O)OCC)c(F)cc1Cl (configuration not stated) | 52 to 53 °C
59 | COc1nc(NC(=O)NS(=O)(=O)c2ccccc2S(C)(=O)=O)nc(N(C)C)n1 | 192 to 195 °C
60 | COc1cc2ncnc(Nc3cccc(O)c3)c2cc1OC | 256 to 257 °C
61 | CCCCn1ncc(/C=C(\Cc2cc3c(cc2OC)CCO3)C(=O)OCC)c1-c1ccc(Cl)cc1O | 158 to 160 °C
62 | O=C(CSc1nc2ccccc2[nH]1)c1ccccc1 | 167 °C
63 | Cc1ccc(CSc2nc(N)nc3nc[nH]c23)cc1 | 240 to 242 °C
64 | CC(C)COc1cc(-c2ccc(N)c(OCC(C)C)c2)ccc1N | 270 °C
65 | CSCc1sccc1S(=O)(=O)N(C)c1cccc2cc(-c3nccs3)[nH]c12 | 213 °C
66 | CC(=O)NN[C@@H]1c2cc(C#N)ccc2OC(C)(C)[C@H]1O (relative stereo) | 209 to 210 °C
67 | O=C(Nc1ccc(-c2ncc(-c3ccc(NC(=O)C4CCCCCC4)cc3)[nH]2)cc1)c1ccc(F)cc1 | 314 to 316 °C
68 | CCNC(=S)N1CCc2[nH]cnc2C1 | 185 °C
69 | COc1ccc(/C=C(\C#N)c2cccc(Cl)c2)cc1OC1CCCC1 | 98 to 100 °C
70 | FC(F)(F)c1cc(Cl)c(-n2cnc(C(F)(F)C(F)(F)Cl)c2)c(Cl)c1 | 101 °C
71 | CCOP(=O)(COCCC(CO)On1cnc2c(N)ncnc21)OCC (configuration not stated) | 86 to 88 °C
72 | CN(C)c1nc(-c2cccc3ccccc23)co1 | 30 to 32 °C
73 | O=c1[nH]c2ccccc2cc1CN1CC=C(CCc2ccccc2)CC1 | 177 to 179 °C
74 | CCCCC(=O)N(CCCCn1ccnc1)C1=Nc2cccc3cccc1c23 | 110 to 112 °C
75 | CCCCn1c(=O)c2[nH]c(Cl)nc2n(CCCC)c1=O | 152 °C

Row | SMILES | melting point
76 | CC(C)(C)Oc1ccc(C(=O)N[C@H]2CC[C@H](CCN3CCN(c4nccc5c4OCC5)CC3)CC2)cc1 | 168 °C
77 | CCn1cc(-c2cccc(Cl)c2)c(=O)n1-c1cccc(C(F)(F)F)c1 | 113 to 114 °C
78 | Cc1nc(-c2ccc(C#N)cc2)sc1C(=O)N[C@H](C)[C@](O)(Cn1ccnc1)c1ccc(F)cc1F | 126 to 128 °C
79 | O=c1c(OCCCCl)c(-c2ccc(OCc3ccccc3)c(OCc3ccccc3)c2)oc2cc(OCc3ccccc3)ccc12 | 136 to 137 °C
80 | O=C(Cn1c(-c2cccc(Cl)c2)nc2cccnc21)NCCN1CCCCC1 | 114 to 115 °C
81 | COCOc1cccc(COc2cc3c(cc2-c2cc(C=CC(=O)O)ccc2OC)C(C)(C)CCC3(C)C)c1 | 144 to 146 °C
82 | C=CCN(c1nc(-c2cc3ccccc3[nH]c2=O)cs1)S(=O)(=O)c1ccccc1 | 214 to 216 °C
83 | Cc1cccc(C)c1NCC(=O)c1ccc(Cl)cc1 | 82 °C
84 | CCOC(=O)C1(c2ccccc2)CCN(C(C)=O)C(=O)C1 (configuration not stated) | 45 to 46 °C
85 | Cc1cccc(NC(=O)NC(CC(=O)O)C(=O)N(CC(=O)OC(C)(C)C)c2ccccc2)c1 (racemic) | 198 °C
86 | CCN(CC)CCc1nc(-c2ccc(OC)c(OC)c2)c2cc(OC)c(OC)cc2n1 | 164 to 166 °C
87 | Cc1nc2c(N[C@@H]3c4ccccc4C[C@H]3O)cc(C(=O)N(C)C)cc2n1C (relative stereo) | 219 to 221 °C
88 | CCOP(=O)(/C=C/c1cn(-c2ccccc2)nc1OCc1ccc(OCc2nc(-c3cccnc3)oc2C)c(OC)c1)OCC | 128 to 129 °C
89 | FC(F)(F)c1cc(Cl)c(-c2nc(Br)c[nH]2)c(Cl)c1 | 224 to 225 °C
90 | CCCCCCCCCCCCCCCCCCOc1cc(OCCCP(=O)(OCC)OCC)cc(C(=O)O)c1 | 53 to 55 °C
91 | Clc1cc(Cl)c2cccc3c2c1N=C3NCCCCn1ccnc1 | 187 to 188 °C
92 | O=C(c1cc(Cl)ccc1Nc1ccncc1)N1CCCCC1 | 158 to 159 °C
93 | CCOC(=O)C[C@H]1c2ccc(OC)cc2CC[C@H]1c1ccc(OC)cc1 (racemic) | 81 °C
94 | CCCCCCCCCCOc1cc(C(=O)O)c(OCCCCCCCCCC)cc1C(=O)O | 136 to 137 °C
95 | CC(C)C(C(=O)O)c1ccc(O)cc1 (configuration not stated) | 172 to 174 °C
96 | O=C(Cn1c2c(c3c4c(ccc31)OCC=C4)CCN(Cc1ccccc1)CC2)Nc1ccccc1 | 134 to 136 °C
97 | CCOC(=O)COc1cc2c(c(Cl)c1Cl)C(=O)C(c1ccc(Cl)cc1)C2 (configuration not stated) | 160 °C

Source: a melting point compilation (Tetko et al.; mined from patent text by program, amines drawn as free bases though some values may be those of a salt)
